Laboratory results published in the supplement of paper PMC10307832.

Tests used:
Experiment in all cases: relative viability (nuclei count vs DMSO), 5 days (fraction); higher = more cells survive
Ricolinostat + Lapatinib = compound: O=C(CCCCCCNC(=O)c1cnc(N(c2ccccc2)c2ccccc2)nc1)NO [Ricolinostat] + CS(=O)(=O)CCNCc1ccc(-c2ccc3ncnc(Nc4ccc(OCc5cccc(F)c5)c(Cl)c4)c3c2)o1 [Lapatinib] (partner 2 µM)
Summary of the method: (§1)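 A single step with final 0.05% Triton X-100, 1% formaldehyde and 1 ug/ml Hoechst fixed the cells and stained nuclei 5 days after treatment. Lung cancer cell lines in 1536-well plates had been treated by pin tool the day after seeding with one drug alone or a fixed anchor-drug dose plus five library-drug doses (not always all listed) in √10 steps, and nuclei were counted on 4× images. Relative viability is the ratio of nuclei in treated wells to nuclei in vehicle wells, taken as the median of duplicate plates.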

[1] = compound: O=C(CCCCCCNC(=O)c1cnc(N(c2ccccc2)c2ccccc2)nc1)NO [Ricolinostat] + CC(C)C[C@H](NC(=O)[C@H](Cc1ccccc1)NC(=O)c1cnccn1)B(O)O [Bortezomib] (partner 0.002 µM)
Summary of the method: as §1

TGX 221 + Pemetrexed = compound: CC1=CN2C(=O)C=C(N=C2C(=C1)C(C)NC3=CC=CC=C3)N4CCOCC4 [TGX 221] + Nc1nc2[nH]cc(CCc3ccc(C(=O)N[C@@H](CCC(=O)O)C(=O)O)cc3)c2c(=O)[nH]1 [Pemetrexed] (partner 0.2 µM)
Summary of the method: as §1

[2] = compound: O=C(CCCCCCNC(=O)c1cnc(N(c2ccccc2)c2ccccc2)nc1)NO [Ricolinostat] + Cc1cc(Nc2cc(N3CCN(C)CC3)nc(Sc3ccc(NC(=O)C4CC4)cc3)n2)n[nH]1 [Tozasertib] (partner 0.1 µM)
Summary of the method: as §1

Row | Cell Line | relative viability (Ricolinostat + Lapatinib; first compound 0.08 µM) | relative viability (Ricolinostat + Lapatinib; first compound 0.253 µM) | relative viability (Ricolinostat + Lapatinib; first compound 0.8 µM) | relative viability (Ricolinostat + Lapatinib; first compound 2.53 µM) | relative viability ([1]; first compound 0.08 µM) | relative viability ([1]; first compound 0.253 µM) | relative viability ([1]; first compound 0.8 µM) | relative viability ([1]; first compound 2.53 µM) | relative viability (TGX 221 + Pemetrexed; first compound 0.08 µM) | relative viability (TGX 221 + Pemetrexed; first compound 0.253 µM) | relative viability (TGX 221 + Pemetrexed; first compound 0.8 µM) | relative viability (TGX 221 + Pemetrexed; first compound 2.53 µM) | relative viability (TGX 221 + Pemetrexed; first compound 8 µM) | relative viability ([2]; first compound 0.08 µM) | relative viability ([2]; first compound 0.253 µM) | relative viability ([2]; first compound 0.8 µM) | relative viability ([2]; first compound 2.53 µM)
1 | LC-2-ad | 0.883 | 0.943 | 0.98 | 0.678 | 0.992 | 0.984 | 0.966 | 0.787 | 0.272 | 0.282 | 0.287 | 0.259 | 0.265 | 0.474 | 0.412 | 0.371 | 0.299
2 | LCLC-97TM1 | 0.658 | 1.09 | 0.87 | 1.15 | – | 0.59 | 0.212 | 0.163 | 0.167 | 0.169 | 0.173 | 0.197 | 0.179 | 0.171 | 0.2 | 0.149 | 0.153
3 | LOU-NH91 | – | 0.872 | 0.778 | 0.78 | – | 0.502 | 0.497 | 0.446 | 0.446 | 0.409 | 0.341 | 0.446 | 0.367 | 0.571 | 0.639 | 0.595 | 0.528
4 | LU99A | 0.833 | 0.853 | 0.846 | 0.541 | 1.02 | 0.952 | 0.976 | 0.745 | 0.198 | 0.173 | 0.173 | 0.232 | 0.133 | 0.258 | 0.276 | 0.224 | 0.239
5 | LXF-289 | 0.847 | 0.907 | 0.897 | 0.731 | 0.951 | 0.931 | 0.993 | 0.874 | 0.926 | 0.918 | 0.897 | 0.937 | 0.961 | 0.192 | 0.201 | 0.22 | 0.19
6 | NCI-H23 | 1.16 | 1.25 | 0.998 | 0.773 | 0.793 | 1.14 | 1.16 | 0.993 | 0.599 | 0.571 | 0.678 | 0.526 | 0.578 | 0.399 | 0.321 | 0.393 | 0.254
7 | NCI-H322M | – | 0.494 | 0.624 | 0.66 | – | 1.14 | 1.29 | 1.22 | 0.58 | 0.619 | 0.604 | 0.579 | 0.565 | – | 0.504 | 0.517 | 0.497
8 | NCI-H460 | 0.844 | 0.91 | 1.02 | 0.764 | 0.895 | 1.01 | 1.11 | 1 | 0.0673 | 0.0618 | 0.0662 | 0.0757 | 0.0781 | 0.549 | 0.46 | 0.558 | 0.186
9 | NCI-H520 | – | 0.745 | 0.851 | 0.786 | – | 0.609 | 0.414 | 0.103 | 0.592 | 0.459 | 0.476 | 0.457 | 0.358 | – | 0.374 | 0.345 | 0.345
10 | NCI-H596 | 0.985 | 1.08 | 1 | 0.743 | 0.896 | 1.09 | 1.13 | – | 0.441 | 0.419 | 0.473 | 0.452 | 0.479 | 0.977 | 1.08 | 0.983 | 0.859
